According to ChEMBL document CHEMBL1201862, “PubChem BioAssay data set” (2004):
Active and inactive are the calls of the source.

How the values were obtained:
[1] = HEp-2 cell cytotoxicity, dose response, cytotoxicity control for RSV inhibitor project, HTS (AID 2410); type: functional; settings: human respiratory syncytial virus
[2] = cells
[3] = A Cell Based Secondary Assay To Explore Cytotoxicity of Compounds that Sensitize Mycobacterium Tuberculosis to Beta-Lactam Antibiotics.; type: functional
[4] = target: T1, Heat shock factor protein 1 (Mus musculus, UniProt P38532); experiment: inhibition of MG132-induced HSE-luciferase signal, confirmation, cell-based, NIH3T3, luminescence, dose retest (AID 2382); type: functional;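 further: NIH3T3 fibroblasts with HSF1-driven luciferase reporter stressed by proteasome inhibitor MG132; luminescence from HSF1-driven luciferase expression after 8 hours of MG132 stress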
T1 sequence (P38532 whole entry): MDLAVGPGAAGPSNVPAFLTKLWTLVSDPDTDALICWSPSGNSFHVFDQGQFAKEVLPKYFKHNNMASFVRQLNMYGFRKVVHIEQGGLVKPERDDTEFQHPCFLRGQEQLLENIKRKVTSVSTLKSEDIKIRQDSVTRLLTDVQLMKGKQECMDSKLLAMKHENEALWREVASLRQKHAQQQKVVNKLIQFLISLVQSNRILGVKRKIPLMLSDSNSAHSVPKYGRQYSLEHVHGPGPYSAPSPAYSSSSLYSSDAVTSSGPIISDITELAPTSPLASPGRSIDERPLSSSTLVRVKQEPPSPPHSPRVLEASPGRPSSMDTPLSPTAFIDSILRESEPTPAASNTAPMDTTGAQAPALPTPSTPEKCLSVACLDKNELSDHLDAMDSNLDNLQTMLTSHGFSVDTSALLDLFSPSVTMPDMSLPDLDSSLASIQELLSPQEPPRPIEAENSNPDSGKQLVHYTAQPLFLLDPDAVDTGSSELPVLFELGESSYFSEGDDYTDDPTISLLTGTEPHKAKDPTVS

[5] = inhibitors of intracellular T. cruzi replication, confirmation, NIH3T3 host cells, beta-gal luminescence (AID 2044); type: functional, cell-based;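 further: intracellular parasites grown in NIH/3T3 mouse fibroblasts as host cells; luminescent beta-galactosidase reporter signal from transgenic T. cruzi replicating inside host cells; inhibitors lower the luminescence signal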
[6] = cytotoxicity toward NIH3T3 fibroblasts, dose response, counter-screen, cell-based, ATP luminescence, mouse fibroblasts (AID 2010); type: functional;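 further: cells exposed to compound for about 90 hours before reading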
[7] = target: T2, Luciferin 4-monooxygenase (Photinus pyralis, UniProt P08659); experiment: Counter Screen for Luciferase-based Assay Positives. [Related pubchem assays: 620, 618, 411 ]
T2 sequence (P08659 whole entry): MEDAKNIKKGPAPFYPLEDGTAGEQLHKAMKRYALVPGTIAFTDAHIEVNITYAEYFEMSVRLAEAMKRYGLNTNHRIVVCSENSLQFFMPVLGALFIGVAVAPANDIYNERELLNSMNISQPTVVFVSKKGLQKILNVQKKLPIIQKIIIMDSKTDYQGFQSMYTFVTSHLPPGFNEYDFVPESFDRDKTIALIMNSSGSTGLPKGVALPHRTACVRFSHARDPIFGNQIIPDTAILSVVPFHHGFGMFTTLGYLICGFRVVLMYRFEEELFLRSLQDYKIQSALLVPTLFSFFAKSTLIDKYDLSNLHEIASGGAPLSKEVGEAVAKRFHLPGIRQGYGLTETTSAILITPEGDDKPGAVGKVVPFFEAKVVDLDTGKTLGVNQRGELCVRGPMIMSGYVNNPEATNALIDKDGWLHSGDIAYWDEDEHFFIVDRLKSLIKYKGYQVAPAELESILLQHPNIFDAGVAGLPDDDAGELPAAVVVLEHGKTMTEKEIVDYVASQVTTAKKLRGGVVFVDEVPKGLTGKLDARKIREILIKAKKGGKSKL

[8] = tested on: HT-1080; experiment: cytotoxicity in HT1080 fibrosarcoma cells, cell-based, fluorescence readout (AID 620); type: functional; settings: Homo sapiens
[9] = target: FAD-linked sulfhydryl oxidase ALR (Homo sapiens, UniProt P55789); experiment: inhibitors of human ALR sulfhydryl oxidase, dose response, biochemical, H2O2 detection, luminescence, cherry-pick (AID 493248)
FAD-linked sulfhydryl oxidase ALR, sequence (P55789 whole entry): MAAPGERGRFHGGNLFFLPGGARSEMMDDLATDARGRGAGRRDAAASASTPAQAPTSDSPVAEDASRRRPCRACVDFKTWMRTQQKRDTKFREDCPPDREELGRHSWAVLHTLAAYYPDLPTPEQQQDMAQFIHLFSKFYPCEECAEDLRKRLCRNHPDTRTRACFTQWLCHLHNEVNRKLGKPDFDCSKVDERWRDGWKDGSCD

[10] = target: T3, Coagulation factor XII (Homo sapiens, UniProt P00748); experiment: FXIIa inhibitor potency, concentration-response, biochemical (AID 716); type: functional
T3 sequence (P00748 whole entry): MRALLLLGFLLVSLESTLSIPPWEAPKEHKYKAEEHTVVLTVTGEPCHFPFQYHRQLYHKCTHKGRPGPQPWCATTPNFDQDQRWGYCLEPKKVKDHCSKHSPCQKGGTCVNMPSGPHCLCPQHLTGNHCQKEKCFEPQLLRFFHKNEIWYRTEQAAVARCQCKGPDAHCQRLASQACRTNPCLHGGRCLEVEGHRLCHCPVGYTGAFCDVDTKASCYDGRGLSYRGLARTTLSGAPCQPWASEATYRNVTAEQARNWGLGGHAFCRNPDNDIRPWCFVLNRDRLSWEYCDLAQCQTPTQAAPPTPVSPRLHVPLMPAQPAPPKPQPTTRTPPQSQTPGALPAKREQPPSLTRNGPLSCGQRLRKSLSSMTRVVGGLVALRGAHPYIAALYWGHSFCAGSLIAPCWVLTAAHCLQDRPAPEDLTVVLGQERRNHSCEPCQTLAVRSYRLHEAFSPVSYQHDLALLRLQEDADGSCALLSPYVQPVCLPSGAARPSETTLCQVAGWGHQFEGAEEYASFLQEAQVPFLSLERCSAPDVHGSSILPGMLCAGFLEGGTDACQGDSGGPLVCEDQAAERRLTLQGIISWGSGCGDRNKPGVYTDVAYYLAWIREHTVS

[11] = microbe, parasite or virus in culture; type: functional; settings: Mycobacterium tuberculosis
[12] = target: Eukaryotic translation initiation factor 4E (Mus musculus, UniProt P63073); experiment: eIF4E–eIF4G protein interaction inhibitors, dose response, biochemical, TR-FRET (AID 855); type: functional;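 further: potency for disrupting eIF4E binding to eIF4GI seen as loss of FRET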
Eukaryotic translation initiation factor 4E, sequence (P63073 whole entry): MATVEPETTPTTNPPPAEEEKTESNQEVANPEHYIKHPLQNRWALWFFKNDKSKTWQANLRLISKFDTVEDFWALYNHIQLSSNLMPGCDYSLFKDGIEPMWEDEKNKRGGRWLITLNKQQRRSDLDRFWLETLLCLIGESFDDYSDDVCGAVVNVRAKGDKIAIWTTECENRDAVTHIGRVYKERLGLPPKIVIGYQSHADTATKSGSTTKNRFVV

[13] = target: G-protein coupled receptor 55 (Homo sapiens, UniProt Q9Y2T6); experiment: GPR55 antagonists blocking LPI-driven arrestin recruitment, primary screen, imaging, U2OS, beta-arrestin-GFP, LPI agonist (AID 2013); type: functional;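 further: antagonist potency measured as reduced agonist-driven arrestin aggregation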
G-protein coupled receptor 55, sequence (Q9Y2T6 whole entry): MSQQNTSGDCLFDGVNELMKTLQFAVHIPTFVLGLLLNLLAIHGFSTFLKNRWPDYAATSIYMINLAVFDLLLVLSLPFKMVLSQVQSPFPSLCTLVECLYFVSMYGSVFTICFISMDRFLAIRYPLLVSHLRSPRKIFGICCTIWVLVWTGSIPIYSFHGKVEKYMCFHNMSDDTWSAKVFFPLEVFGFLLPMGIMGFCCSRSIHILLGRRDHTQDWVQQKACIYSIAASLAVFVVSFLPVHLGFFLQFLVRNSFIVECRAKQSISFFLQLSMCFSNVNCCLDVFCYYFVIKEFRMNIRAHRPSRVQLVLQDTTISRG

[14] = target: T4, Calpain-2 catalytic subunit (Sus scrofa, UniProt P43367); experiment: pig calpain II inhibitor potency, dose response, biochemical, fluorogenic peptide substrate (AID 1420); type: functional
T4 sequence (P43367 whole entry): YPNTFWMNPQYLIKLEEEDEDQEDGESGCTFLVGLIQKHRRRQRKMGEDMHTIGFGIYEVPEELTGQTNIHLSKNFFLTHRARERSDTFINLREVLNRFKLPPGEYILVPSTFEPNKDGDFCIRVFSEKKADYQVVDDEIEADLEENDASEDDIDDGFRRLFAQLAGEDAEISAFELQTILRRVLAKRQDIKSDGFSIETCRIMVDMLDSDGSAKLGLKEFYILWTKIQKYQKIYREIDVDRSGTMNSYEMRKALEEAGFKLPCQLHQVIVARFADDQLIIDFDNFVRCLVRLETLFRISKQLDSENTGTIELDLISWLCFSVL

[15] = target: T2, Luciferin 4-monooxygenase; experiment: firefly luciferase enzyme inhibitors, dose response, biochemical, luminescence (AID 1891)
[16] = Luminescence Cell-Based Dose Confirmation HTS to Identify Inhibitors of Platelet Dense Granule Release. [Related pubchem assays: 1663 (Primary HTS), 1678 (Summary of Project)]; type: functional
[17] = tested on: HeLa; experiment: HeLa cell cytotoxicity, dose response, cytotoxicity control, 24 h, cherry-picked samples (AID 504726); type: functional, cell-based; settings: Homo sapiens;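 further: potency for cytotoxicity as loss of luminescence signal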
[18] = target: T5, Microphthalmia-associated transcription factor (Homo sapiens, UniProt O75030); experiment: TRPM1 promoter luciferase signal decrease, dose response, MITF inhibitor project, cell-based, SK-MEL-5, cherry-picked, set 3 (AID 493073); type: functional
T5 sequence (O75030 whole entry): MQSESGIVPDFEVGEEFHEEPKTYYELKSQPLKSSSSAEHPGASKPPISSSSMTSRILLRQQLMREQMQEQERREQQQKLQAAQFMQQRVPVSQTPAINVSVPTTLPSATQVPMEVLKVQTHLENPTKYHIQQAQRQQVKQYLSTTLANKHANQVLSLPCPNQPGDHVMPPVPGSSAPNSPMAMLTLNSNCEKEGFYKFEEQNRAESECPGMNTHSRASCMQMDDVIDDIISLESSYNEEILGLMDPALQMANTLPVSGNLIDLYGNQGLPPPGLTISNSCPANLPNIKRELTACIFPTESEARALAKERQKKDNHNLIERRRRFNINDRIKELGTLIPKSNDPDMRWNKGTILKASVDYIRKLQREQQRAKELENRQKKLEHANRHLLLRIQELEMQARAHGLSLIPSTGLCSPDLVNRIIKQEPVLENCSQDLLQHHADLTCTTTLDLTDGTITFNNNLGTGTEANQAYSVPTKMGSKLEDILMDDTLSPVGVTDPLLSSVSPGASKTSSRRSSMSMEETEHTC

[19] = tested on: A-375; experiment: A375 melanoma cell viability reduction, dose response, counter-screen for MITF modulator project, cherry-pick samples, set 2 (AID 540335); type: functional, cell-based; settings: Homo sapiens
[20] = Shn3 3'UTR reporter inhibitors, dose response, cell-based, Clone20 osteoblasts, firefly luciferase, cherry-picked (AID 624132); type: functional;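 further: firefly luciferase luminescence from reporter carrying the Shn3 3'UTR in osteoblasts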
[21] = HepG2 cell cytotoxicity, dose response, cytotoxicity control for Shn3 inhibitor project, CellTiter-Glo, cherry-picked (AID 624134); type: functional, cell-based
[22] = control 3'UTR Renilla luciferase suppression, dose response, counter-screen for Shn3 inhibitor project, cell-based, Clone20-Shn3RL, cherry-picked (AID 624133); type: functional
[23] = A549 cell cytotoxicity, dose response, cytotoxicity control, plate reader, cherry-pick, antagonist series (AID 743412); type: functional, cell-based
[24] = LGR2 antagonists, dose response, cell-based, HEK293, CRE-luciferase reporter, cherry pick, set 2 (AID 743343); type: functional;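 further: transfected cells were stimulated with diluted bursicon conditioned medium after compound addition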
[25] = MC4R antagonists, dose response, counter-screen for LGR2 antagonist project, cell-based, plate reader, cherry pick (AID 743444); type: functional;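 further: transfected HEK 293 cells stimulated with alpha-MSH peptide; potency of inhibitors of the alpha-MSH evoked signal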
[26] = HEK293 cell cytotoxicity, dose response, cytotoxicity control, plate reader, cherry-picked samples (AID 743446); type: functional, cell-based
[27] = target: T6, Protein skinhead-1 (Caenorhabditis elegans, UniProt P34707); type: functional
T6 sequence (P34707 whole entry): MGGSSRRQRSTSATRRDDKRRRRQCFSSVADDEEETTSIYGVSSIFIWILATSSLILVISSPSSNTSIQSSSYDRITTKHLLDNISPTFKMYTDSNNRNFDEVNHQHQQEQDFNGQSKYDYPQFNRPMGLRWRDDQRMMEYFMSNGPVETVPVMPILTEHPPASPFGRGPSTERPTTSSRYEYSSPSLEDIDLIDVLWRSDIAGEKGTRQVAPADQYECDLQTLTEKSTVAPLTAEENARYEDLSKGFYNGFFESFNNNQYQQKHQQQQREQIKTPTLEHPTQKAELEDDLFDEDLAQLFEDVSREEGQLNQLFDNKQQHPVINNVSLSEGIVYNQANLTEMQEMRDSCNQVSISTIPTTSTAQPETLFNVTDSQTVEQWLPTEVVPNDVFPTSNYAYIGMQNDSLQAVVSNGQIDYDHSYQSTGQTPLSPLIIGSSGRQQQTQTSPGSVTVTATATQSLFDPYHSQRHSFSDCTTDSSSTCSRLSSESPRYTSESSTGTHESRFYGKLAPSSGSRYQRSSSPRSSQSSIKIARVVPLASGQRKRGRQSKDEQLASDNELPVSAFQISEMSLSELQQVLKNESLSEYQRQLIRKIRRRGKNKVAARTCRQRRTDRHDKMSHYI

[28] = THP-1 cell cytotoxicity, dose response, cytotoxicity control for non-replicating M. tuberculosis project (AID 489025); type: functional
[29] = Vero E6 cell cytotoxicity, dose response, cytotoxicity control for non-replicating M. tuberculosis project, secondary assay (AID 492998); type: functional, VeroE6; settings: Vero C1008
[30] = cells; type: functional

CC(Nc1ccccc1N1CCCCC1)C(=O)N1CCc2ccccc21 (stereo not given)
CC50 [1]: > 50 µM (active)
IC50 [2]: 15.4 µM (active)

O=C(C1=C[C@H](c2ccc(Br)cc2)C[C@H](OCCCCO)O1)N1CCN(Cc2ccc3c(c2)OCO3)CC1
CC50 [3]: > 40 µM (active)
EC50 [4]: > 195 µM (not active)
EC50 [5]: 0.346 µM (active)
EC50 [6]: > 60 µM (not active)

Clc1c(CSc2nc3ccccc3o2)nc2ccccn12
EC50 [7]: 9.33 µM (active)
EC50 [8]: > 50 µM (not active)
AC50 [9]: 7.37 µM (active)

CC(=O)c1c(C)nn(CC(O)COc2ccc3c(c2)CCC3)c1C (stereo not given)
IC50 [10]: > 50 µM (inactive)

CCOC(=O)N1CCN(C(=O)C2CC(c3ccc(F)cc3)=NO2)CC1 (stereo not given)
IC50 [10]: > 50 µM (inactive)

CCCCOCCCn1c(-c2ccco2)nc2nc3ccccc3nc21
CC50 [11]: > 40 µM (active)
IC50 [12]: > 64 µM (inactive)

c1ccc(CCNc2ncnc3scc(C4COc5ccccc5O4)c23)cc1 (stereo not given)
IC50 [13]: 3.59 µM (active)
IC50 [14]: 10.4 µM (not active)

O=C1CC(N2CCN(Cc3ccc4c(c3)OCO4)CC2)C(=O)N1c1cccc(Cl)c1 (stereo not given)
IC50 [12]: > 64 µM (inactive)

COc1cc(SC)ccc1C(=O)Nc1nc(C)cs1
EC50 [4]: 0.845 µM (active)
EC50 [15]: 0.511 µM (active)
EC50 [16]: 7.22 µM (active)
AC50 [17]: 42.3 µM (active)
AC50 [18]: 4.81 µM (active)
AC50 [19]: 47.4 µM (active)
AC50 [20]: 7.09 µM (active)
AC50 [21]: > 70 µM (inactive)
AC50 [22]: 35.2 µM (active)
AC50 [23]: 43.9 µM (active)
AC50 [24]: 0.49 µM (active)
AC50 [25]: 0.491 µM (active)
AC50 [26]: 24.9 µM (active)

COc1cc(/C=C/c2cc(C(=O)O)c3ccccc3n2)ccc1OC(F)F
CC50 [1]: 35.7 µM (active)
IC50 [2]: 28.6 µM (active)

Cc1ccc(-c2nnc(O)c(O)c2N=Nc2ccccc2)cc1
CC50 [3]: > 40 µM (active)

Cc1nc2ccc(S(=O)(=O)NC(C(=O)Nc3nc4ccc(Cl)cc4s3)C(C)C)cc2s1 (stereo not given)
IC50 [13]: 0.894 µM (active)

c1ccc(-c2nc3cc4ccccc4cc3[nH]2)nc1
EC50 [7]: 6.86 µM (active)
EC50 [8]: 14.6 µM (active)
IC50 [27]: 9.19 µM (active)

Cc1c(C(=O)N2CCN(S(=O)(=O)c3ccccc3F)CC2)oc2c(Cl)cccc12
CC50 [1]: 31.6 µM (active)
IC50 [27]: > 100 µM (inactive)
IC50 [2]: > 50 µM (active)

NC1=NC(=O)/C(=C\c2ccsc2)S1
IC50 [12]: 50 µM (inactive)

Cc1noc(C)c1COC(=O)Cc1ccc(Cl)cc1
IC50 [10]: > 50 µM (inactive)

COc1ccccc1CNC(=O)c1ccc(SC)cc1OC
CC50 [1]: > 50 µM (active)
CC50 [3]: > 40 µM (active)

Cc1cc(NC(=O)CCC(=O)N(CCC(C)C)C(C(=O)NC2CCCC2)c2cccnc2)no1 (stereo not given)
AC50 [17]: > 350 µM (inactive)

O=C(N/N=C\c1ccc([N+](=O)[O-])o1)c1cncc(Br)c1
EC50 [5]: 0.389 µM (active)
EC50 [6]: > 60 µM (not active)
AC50 [17]: > 350 µM (inactive)
CC50 [28]: 27.4 µM (active)
CC50 [29]: > 20 µM (active)
IC50 [30]: 3.94 µM (active)
